Test results published in PMC11083769, “Characterization and pharmacokinetics of cinnamon and star anise compound essential oil pellets prepared via centrifugal granulation technology” (BMC Veterinary Research, 2024).
≈ marks a conversion by molar mass, not a printed value. Marks after values point to notes of the source that are not given here.

Columns and labels:
[1] = Pharmacokinetics of compound essential oil pellets in pig model; assay type: in vivo; details: single dose, n = 6
From the text: Six healthy Landrace × Large White hybrid pigs were randomly divided into three groups for pharmacokinetic experiments and were purchased from JuCong Agriculture, Nanning, Guangxi. During the adaptation period, the temperature of the breeding environment was 18–25℃, the relative humidity was 50–65%, and commercial feed and water free of antibiotics and target drugs were freely available to the pigs housed individually in six pig pens. After the experiment, the pigs were released.
After one week in the experimental setting, the pigs were labelled with numbers 1–6, randomly divided into 3 groups, and weighed before the experiment. […] Compound essential oil pellets were orally administered at three different doses of 50, 100 and 200 mg/kg. Three cycles of crossover trials were performed with 6 pigs, with each cycle separated by 7 days. 5 mL of blood was collected from the anterior vena cava at different time points after administration, centrifuged at 3000 r/min for 10 min, after which the plasma was separated. The drug concentration in the plasma was detected by GC‒MS/MS after pretreatment.
The average drug-time curve of each group was drawn. WinNonlin version 5.2.1 was used to calculate the pharmacokinetic parameters.
The compound essential oil pellet concentration was measured using GC‒MS/MS. The chromatographic conditions were as follows. A PEG-20 M column (30 m × 0.32 mm, 0.25 μm) was used. The temperature was increased from 90 ℃ to 160 ℃ at a heating rate of 10 ℃/min, held for 5 min, further increased from 160 ℃ to 280 ℃ at a heating rate of 20 ℃/min and held for 2 min.

[2] = system: Staphylococcus aureus Newman strain; design: method as in PMID 32185411; details: cited from earlier work
[3] = oral compound essential oil pellets 50 mg/kg
[4] = oral compound essential oil pellets 100 mg/kg
[5] = oral compound essential oil pellets 200 mg/kg

O=C/C=C/c1ccccc1 [cinnamaldehyde, Cinnamaldehyde]
AUC0−∞ of plasma cinnamaldehyde [1, 3]: 1433.11 ± 21.30^a h·µg/L | CL of plasma cinnamaldehyde [1, 3]: 18.69 ± 1.81^ac L/h/kg | Cmax of plasma cinnamaldehyde [1, 3]: 58.81 ± 6.16^a µg/L | MRT0−∞ of plasma cinnamaldehyde [1, 3]: 20.96 ± 0.21^a h | T1/2 of plasma cinnamaldehyde [1, 3]: 14.52 ± 0.14^a h | Tmax of plasma cinnamaldehyde [1, 3]: 2.00 h | Vz of plasma cinnamaldehyde [1, 3]: 1205.24 ± 149.37^ab L/kg | AUC0−∞ of plasma cinnamaldehyde [1, 4]: 467.05 ± 141.28^d h·µg/L | CL of plasma cinnamaldehyde [1, 4]: 142.48 ± 40.58^d L/h/kg | Cmax of plasma cinnamaldehyde [1, 4]: 37.57 ± 5.56^d µg/L | MRT0−∞ of plasma cinnamaldehyde [1, 4]: 17.62 ± 1.84^d h | T1/2 of plasma cinnamaldehyde [1, 4]: 12.21 ± 1.27^d h | Tmax of plasma cinnamaldehyde [1, 4]: 2.00 h | Vz of plasma cinnamaldehyde [1, 4]: 7671.46 ± 1809.86^d L/kg | AUC0−∞ of plasma cinnamaldehyde [1, 5]: 1653.25 ± 295.40 µg·h/L | CL of plasma cinnamaldehyde [1, 5]: 56.85 ± 15.32 L/h/kg | Cmax of plasma cinnamaldehyde [1, 5]: 64.18 ± 2.33 µg/L | MRT0−∞ of plasma cinnamaldehyde [1, 5]: 20.68 ± 0.61 h | T1/2 of plasma cinnamaldehyde [1, 5]: 14.33 ± 0.42 h | Tmax of plasma cinnamaldehyde [1, 5]: 2.00 h | Vz of plasma cinnamaldehyde [1, 5]: 4593.67 ± 625.29 L/kg

C/C=C/c1ccc(OC)cc1 [trans-anethole, Trans-anethole]
MIC [2]: 49.4 mg/mL (≈ 333 mM)
